Consider six compounds from article PMC3000476, “Amino acid derivatives are substrates or non-transported inhibitors of the amino acid transporter PAT2 (slc36a2)” (Biochimica et Biophysica Acta, 2011).

A word on the IC50: it is the concentration needed to halve the response being measured. Lower therefore signals inhibition by little substance.

In test [1] the target is T1, PAT2 (Rattus norvegicus, UniProt Q8K415).
T1 construct: gene Slc36a2
As to the kind of experiment: inhibition of L-proline-induced current (TEVC) in PAT2-expressing oocytes; also uptake inhibition IC50 […]. It is filed as cell-based.

Test [2] has as its target T1, PAT2.
In test [3] the target is T1, PAT2. Put plainly: L-[3H]pipecolic acid uptake and TEVC competition with glycine in PAT2-expressing oocytes. It is filed as cell-based.
Test [4] deals with T1, PAT2. As to the kind of experiment: inhibition of L-[3H]proline uptake in PAT2-expressing Xenopus oocytes; TEVC; no trans-stimulation of efflux. It is filed as cell-based.
Test [5] deals with T1, PAT2. Put plainly: competition with L-[3H]proline uptake in PAT2-expressing Xenopus oocytes; TEVC. The class given is cell-based.
In test [6] the target is T1, PAT2. Put plainly: competition with L-[3H]proline uptake in PAT2-expressing Xenopus oocytes. It is filed as cell-based.

T1 sequence (Q8K415 whole entry): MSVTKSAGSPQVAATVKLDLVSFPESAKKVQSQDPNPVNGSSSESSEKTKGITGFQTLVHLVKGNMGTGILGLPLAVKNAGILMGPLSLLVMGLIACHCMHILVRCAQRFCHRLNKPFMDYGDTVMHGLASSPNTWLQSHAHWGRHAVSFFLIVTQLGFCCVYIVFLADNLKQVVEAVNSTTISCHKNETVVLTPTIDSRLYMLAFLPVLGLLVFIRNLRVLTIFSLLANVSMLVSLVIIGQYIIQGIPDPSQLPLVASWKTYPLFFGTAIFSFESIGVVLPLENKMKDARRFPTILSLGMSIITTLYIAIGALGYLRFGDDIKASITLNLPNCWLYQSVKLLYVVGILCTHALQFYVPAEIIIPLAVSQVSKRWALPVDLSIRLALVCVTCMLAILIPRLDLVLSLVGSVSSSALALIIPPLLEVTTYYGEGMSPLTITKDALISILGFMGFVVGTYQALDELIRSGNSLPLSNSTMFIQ

For the compound `CC(N)(Cc1c[nH]c2ccccc12)C(=O)O` (racemic) [Me-Trp, α-methyl-D,L-tryptophan], it took 2700 ± 100 µM to reach half-maximal inhibition in test [1] (IC50).

As for `NCC(=O)O` [Gly, glycine], in test [2], the “[3H]glycine uptake, TEVC current and trans-stimulation of L-[3H]proline efflux i” value is 934 ± 22 pmol oocyte^− 1 (40 min)^− 1. For the compound `O=C(O)[C@@H]1CCCCN1` [L-Pip, L-pipecolic acid], the “L-[3H]pipecolic acid uptake” value in test [3] was 224 ± 19 pmol oocyte^− 1 (40 min)^− 1. As to `N[C@@H](Cc1c[nH]c2ccc(O)cc12)C(=O)O` [OH-Trp, 5-hydroxy-L-tryptophan], the IC50 in test [4] stood at 1600 ± 400 µM. `O=C(O)[C@H]1NCC[C@@H]1O` [T3HP, trans-3-hydroxy-L-proline]: the IC50 in test [5] turned out to be 13100 ± 4200 µM.

The compound `O=C(O)[C@@H]1C[C@@H](O)CN1` [T4HP, trans-4-hydroxy-L-proline] registered an IC50 in test [6] of 700 ± 200 µM.
